According to patent US20250114313A1, “OLIGO-BENZAMIDE ANALOGS AND THEIR USE IN CANCER TREATMENT” (BOARD OF REGENTS, THE UNIVERSITY OF TEXAS SYSTEM, priority 2022, published 2025):

What was measured:
[1] = Pharmacokinetics in MDA-MB-231 xenograft tumor-bearing mice (LC-MS/MS); type: in vivo
Source text: Analytical LC-MS/MS conditions: Compound levels in plasma and tissues for in vivo pharmacokinetic (PK) studies were monitored by LC-MS/MS using an AB Sciex (Framingham, MA) 6500^+ QTRAP® mass spectrometer coupled to a Shimadzu (Columbia, MD) Prominence LC. Analytes were detected with the mass spectrometer in positive MRM (multiple reaction monitoring) mode by following the precursor to fragment ion transition 705.3→592.3. An Agilent C18 XDB column (5 micron, 50×4.6 mm) was used for chromatography for PK studies with the following conditions: Buffer A: dH2O+0.1% formic acid, Buffer B: methanol+0.1% formic acid, 0-1.0 min 5% B, 1.0-2 min gradient to 98% B, 2-3.0 min 98% B, 3.0-3.2 min gradient to 5% B, 3.2-4.5 min 5% B. Tolbutamide (transition 271.2 to 91.2) from Sigma (St. Louis, MO) was used as an internal standard (IS). Pharmacokinetic studies were performed in MDA-MB-231 xenograft tumor-bearing female NOD-SCID mice. ERX-41 was given either orally or intraperitoneally (10 mg/kg single dose). Animals were sacrificed in groups of three, blood was obtained by cardiac puncture at each time point (0, 0.5, 1.5, 3, 6 and 24 hours post dose) using the anticoagulant EDTA and plasma isolated by centrifugation. Tumor and liver were also collected and snap frozen in liquid nitrogen after rinsing with PBS to remove surface adhering blood. Tissues were homogenized in a 3-fold volume (weight by volume) of PBS to generate a homogenate. 100 μl of plasma or tissue homogenate was mixed with 200 μl of methanol containing 0.15% formic acid and 15 ng/mL tolbutamide IS. The samples were vortexed 15 sec, incubated at room temp for 10 min and spun twice at 16,100×g 4° C. in a refrigerated microcentrifuge. The amount of compound present in plasma, tumor and liver was quantified by LC-MS/MS to determine the amount of compound in each matrix. Standard curves were generated using blank plasma (Bioreclamation, Westbury, NY, RRID:SCR_004728) or blank tissue homogenate spiked with known concentrations of test compound and processed as described above. The concentrations of drug in each time-point sample were quantified using Analyst 1.7.1 software (Sciex). A value of 3-fold above the signal obtained from blank plasma or tissue homogenate was designated the limit of detection (LOD). The lower limit of quantitation (LLOQ) was defined as the lowest concentration at which back calculation yielded a concentration within 20% of theoretical and which was above the LOD. The LLOQ for plasma and tumor was 0.1 ng/mL and 1 ng/mL in liver. PK parameters, Cmax, Tmax, Terminal T½ (calculated as Ln(2)/λz), AUClast (area under the concentration time curve to the last measured value determined by linear trapezoidal rule), Cl (clearance measured as Dose/AUCinf), and Vz (volume of distribution based on the terminal phase=Dose/AUCinf*λz) were calculated using the noncompartmental analysis tool of Phoenix WinNonLin version 8.01 (Certara/Pharsight, Sunnyvale, CA, RRID:SCR_003163).

[2] = tested on: SUM-159 cells; assay: CellTiter-Glo, SUM-159 WT cells (mCherry-RAMP4); type: cell-based; details: Homo sapiens, SUM159; SUM-159 stably transfected mCherry-RAMP4, CellTiter-Glo
Protocol: Cell viability assays: Cells were seeded in 96-well plates (2×10^3 cells/well) one day before the treatment. Cells were treated with varying concentrations of ERX-41 or ERX-11 analogs for 3-6 days. Then effects of ERX-41 or ERX-11 analogs on cell viability were measured in triplicate or sextuplicate with multiple biological replicates using the WST-1 (Promega), MTT as previously described^33 or CellTiter-Glo 2.0 (Promega) assays.

[3] = tested on: SUM-159 clones with LIPA KO; assay: Live cell imaging with SYTOX Green, SUM-159 LIPA KO; type: cell-based, Human; details: 1 μM
Protocol: Live cell imaging: Live cell images were acquired by Lionheart FX automated microscope (BioTek). Cells were plated one day before the experiment. For cell death assay, 0.2 μM SYTOX Green was added into the plate 15 min before the experiment.

[4] = tested on: MDA-MB-231 TNBC xenografts; assay: MDA-MB-231 TNBC xenografts, ERX-41; type: in vivo; details: oral, 10 mg/kg/day
Protocol: Animal Studies: All animal experiments were performed using UTHSA and UTSW IACUC approved protocols. For cell based xenograft tumor assays, TNBC cells (2×10^5-2×10^6) were mixed with an equal volume of matrigel and implanted in the mammary fat pads of 6-week-old female athymic nude mice as described^33. BALB/c mice were used for D2A1 syngeneic model. Once tumors reached measurable size, mice were divided into control (vehicle) and ERX-41 (10 mg/kg/oral) treatment groups. Mice bearing TNBC PDX tumors were purchased from Jackson laboratory (TM00089; TM00096; TM00098). TNBC PDX line UTPDX0001 establishment was earlier described^38. WHIM-20 ER+PDX model was purchased from Horizon Labs. OCa-PDX-38 was received from UTHSA ObGyn tissue procurement core. When tumors reached ˜750 mm^3 they were dissected into 2 mm^3 pieces and implanted into the mammary fat pads of 6 weeks old female SCID or NSG mice. When the tumor volume reached ˜200 mm^3, mice were randomized for treatment. The mice were monitored daily for adverse toxic effects and tumor volume was measured every 3-4 days using calipers. For establishing ES2 tumors, ES2/GFP/LUC cells were injected i.p. and tumors were measured twice a week using Xenogen in vivo imaging system. At the end of each experiment, the mice were euthanized, and the tumors were removed, weighed and processed for histological studies and protein analysis. Dose were selected based on pilot MTD study of 10, 50 100 mg/kg of ERX-41 for 14 days using C57BL6 mice. The mice were monitored daily for adverse toxic effects. IHC analysis was conducted as described previously^39 and immunoreactivity was visualized using DAB substrate and counterstained with hematoxylin (Vector Laboratories Inc. Burlingame, CA). Control rabbit IgG staining was used as a negative control. The sections were scored by two independent evaluators blinded to the patient's clinical status.

[5] = tested on: p-PERK, IRE1α, eIF2α, CHOP in TNBC cells; assay: Western blotting of UPR proteins, TNBC cells; type: cell-based, Human; details: 1 μM
Protocol: Western blotting: Whole cell lysates from breast cancer cells were prepared with 2× sample buffer (60 mM Tris-HCl, pH 6.8, 2% sodium dodecyl sulfate, 10% glycerol), and before loading mixed with loading buffer (5% 2-mercaptoethanol, 0.1% bromophenol blue) and boiled for denaturation, as previously described.^33 Proteins were separated by SDS-PAGE and subjected to Western analysis using antibodies. To detect nascent translated proteins, puromycin (final concentration 10 μg/mL) was added into cell plates 30 minutes before harvesting cells. Then samples were subjected to the Western blotting. Nascent proteins were detected by anti-puromycin antibody.

[6] = tested on: HMEC cells; assay: Western blotting (UPR proteins, puromycin labeled nascent proteins), HMEC; type: cell-based, human; details: 1 μM

## CC(C)COc1cc(C(=O)Nc2ccc(C(=O)N[C@H]3CC[C@H](C)CC3)cc2OCC(C)C)ccc1NC(=O)c1ccc([N+](=O)[O-])c(OCCO)c1 [ERX-41]
[1]; 10 mg/kg single dose
  drug level in treated tumor tissues at 24 h: detectable levels of ERX-41 at 24 h
[1]; mouse, in vivo, po
  oral bioavailability: orally bioavailable
[1]; oral administration
  time to detection in liver and kidneys: ≤ 4 h
[1]; oral or intraperitoneal administration
  time to detection in subcutaneous MDA-MB-231 xenograft tumors: ≤ 1.5 h
[1]; oral, 10 mg/kg single dose
  time of peak detectable levels in plasma: 4 h
[2]
  IC50: ~200 nM
[3]
  cell death in SUM-159 with LIPA KO: dramatic decrease in cell death
[4]
  extirpated tumor weights and sizes at end of study: decreased tumor growth
  growth of established xenografts: significantly decreased the growth
  overt toxicity, body weights of treated mice: no alterations in body weights
[5]; p-PERK, IRE1α, eIF2α, CHOP
  induction of ER stress / UPR proteins: induces ER stress and downstream UPR pathways
[5]; western
  PERK activation and peIF2α, parental SUM-159: activates PERK
[6]
  global de novo protein synthesis in HMEC: not HMEC cells
  induction of ER stress / UPR proteins in HMEC: not in HMEC cells
